We go through four compounds from patent US8846746B2, “Pyrazole compound and pharmaceutical use thereof” (Japan Tobacco Inc., priority 2011, dated 2014).

Structures are written as SMILES.

This experiment deals with human SGLT1 (Homo sapiens (Human), UniProt P13866). Briefly: SGLT1 inhibitory activity: 14C-AMG uptake into CHO-K1 cell line stably expressing human SGLT1. Type of experiment: cell-based. The following applies: 14C-AMG uptake, CHO-K1 cells stably expressing human SGLT1. The gist of the method: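 Human SGLT1 was stably expressed in CHO-K1 cells. Cells were first held 20 min in sodium-free buffer, then exposed to compound in Na(+)/BSA buffer with tracer and AMG (2 mM in the added solution).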
human SGLT1, sequence (P13866 whole entry): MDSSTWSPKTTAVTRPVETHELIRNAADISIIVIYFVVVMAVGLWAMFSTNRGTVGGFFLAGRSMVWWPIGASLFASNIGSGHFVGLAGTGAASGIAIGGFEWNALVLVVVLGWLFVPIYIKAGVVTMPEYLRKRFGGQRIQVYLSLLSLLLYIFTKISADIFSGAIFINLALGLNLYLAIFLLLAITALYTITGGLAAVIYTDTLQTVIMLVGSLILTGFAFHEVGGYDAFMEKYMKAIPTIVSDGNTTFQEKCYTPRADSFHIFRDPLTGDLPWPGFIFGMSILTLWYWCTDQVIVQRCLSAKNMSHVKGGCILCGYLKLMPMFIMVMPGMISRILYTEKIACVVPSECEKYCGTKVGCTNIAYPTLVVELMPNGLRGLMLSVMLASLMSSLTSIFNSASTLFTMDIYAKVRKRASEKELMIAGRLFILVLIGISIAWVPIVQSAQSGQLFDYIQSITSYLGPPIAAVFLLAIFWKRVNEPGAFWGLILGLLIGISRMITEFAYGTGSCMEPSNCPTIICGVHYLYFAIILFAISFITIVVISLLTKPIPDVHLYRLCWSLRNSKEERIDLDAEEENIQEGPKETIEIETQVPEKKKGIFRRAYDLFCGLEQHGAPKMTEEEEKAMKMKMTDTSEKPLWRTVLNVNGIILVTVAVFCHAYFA
As a reminder, the IC50 is the concentration at which inhibition is half-maximal. Low values mean higher potency, high ones lower potency. Compound `CC(C)(OCc1cc(Cl)cc(-c2cc(NC(=O)[C@H]3CNC(=O)N3)nn2-c2ccc(F)cc2)c1)C(F)(F)F` [Example 600] returned an IC50 of 41 nM.
Then `CC(C)(OCc1cc(F)cc(-c2cc(NC(=O)[C@H]3CNC(=O)N3)nn2-c2ccccc2)c1)C(F)(F)F` [Example 601], with 31 nM; and `CC(C)(OCc1cc(F)cc(-c2cc(NC(=O)[C@H]3CNC(=O)N3)nn2-c2ccc(F)cc2)c1)C(F)(F)F` [Example 602], with 28 nM.
Under `CC(C)(OCc1cc(F)cc(-c2cc(NC(=O)[C@H]3CNC(=O)N3)nn2-c2ccc(Cl)cc2)c1)C(F)(F)F` [Example 603] stands 16 nM.
